The half-life is the time in which the quantity being followed falls by half. By bioavailability is commonly meant the share of a dose that reaches the circulation, judged against a reference dose that is usually intravenous.

Common to all, as to format: ADME, organism-based
Data set [1] is described as follows: Clearance in rat at 3 mg/kg, iv and 10 mg/kg, po. The following applies: in vivo.
A short description of data set [2]: Volume of distribution at steady state in rat at 3 mg/kg, iv and 10 mg/kg, po. The following applies: in vivo, read-out: Vdss.
Data set [3] in a line: Half life in rat at 3 mg/kg, iv and 10 mg/kg, po. The settings on record: in vivo.
Data set [4] in a line: Bioavailability in rat at 3 mg/kg, iv and 10 mg/kg, po. The settings on record: in vivo.

As for `COc1cc2c(Nc3ccc(F)c(Cl)c3)c(C(N)=O)cnc2cc1OCCNC1CC1`, the clearance in data set [1] stood at 230 mL/min/kg. Further, the Vd in data set [2] was found to be 30 L/kg. In data set [3], this compound had a half-life of 1.7 h.

With `COc1cc2c(Nc3cccc(Cl)c3Cl)c(C(N)=O)cnc2cc1NCCN(C)C`, the clearance in data set [1] turned out to be 90 mL/min/kg. In addition, the Vd in data set [2] was 19 L/kg. In data set [3], this compound gave a half-life of 2.4 h.

In data set [4], `COc1cc2ncc(C(N)=O)c(Nc3ccc(F)c(Cl)c3)c2cc1OC` yielded a bioavailability of 24%. In data set [1], the clearance was 59 mL/min/kg. In addition, the Vd in data set [2] amounted to 1.8 L/kg. This compound also had a half-life in data set [3] of 0.6 h.

As to `COc1cc2ncc(C(N)=O)c(Nc3ccc(F)cc3)c2cc1OC`, the bioavailability in data set [4] amounted to 96%. In data set [1], this compound yielded a clearance of 7 mL/min/kg. In addition, in data set [2], the Vd was 0.3 L/kg. In addition, in data set [3], the half-life is 0.9 h.

With `COc1cc2c(Nc3ccc(F)cc3F)c(C(N)=O)cnc2cc1NCCN(C)C`, in data set [1], the clearance was determined as 220 mL/min/kg. Further, the Vd in data set [2] amounted to 36 L/kg. The half-life in data set [3] was 1.9 h.

In data set [1], `CCOc1cc2ncc(C(N)=O)c(Nc3cccc(Cl)c3Cl)c2cc1NCCN1CCCCC1` had a clearance of 110 mL/min/kg. Moreover, in data set [2], the Vd stood at 12 L/kg. For the same compound, in data set [3], the half-life was 1.6 h.

`COc1cc2ncc(C(N)=O)c(Nc3cccc(Cl)c3Cl)c2cc1OC`: the clearance in data set [1] was found to be 115 mL/min/kg. In data set [2], the Vd is 4.1 L/kg. The compound also had a half-life in data set [3] of 0.5 h.

`COc1cc2ncc(C(N)=O)c(Nc3cccc(Cl)c3Cl)c2cc1NCCN1CCCCC1` had a clearance in data set [1] of 78 mL/min/kg. Further, the Vd in data set [2] was 8.5 L/kg. In addition, the half-life in data set [3] is 1.6 h.

Take `COc1cc2c(Nc3ccc(F)c(Cl)c3)c(C(N)=O)cnc2cc1OCCN(C)C`: the clearance in data set [1] turned out to be 210 mL/min/kg. Moreover, in data set [2], the Vd was 40 L/kg. This compound showed a half-life in data set [3] of 2.1 h.

As to `COc1cc2c(Nc3ccc(F)c(Cl)c3)c(C(N)=O)cnc2cc1OCCN1CCCC1`, in data set [1], the clearance amounted to 270 mL/min/kg. Besides, the Vd in data set [2] was 52 L/kg. In data set [3], this compound gave a half-life of 2.4 h.

For the origin of these results see ChEMBL document CHEMBL1143302, “Identification of 3-amido-4-anilinoquinolines as potent and selective inhibitors of CSF-1R kinase” (Bioorg Med Chem Lett, 2009).
